Test results published in PubChem BioAssay AID179 (DTP/NCI, 2004).
pEC50, pIC50: −log10 of the molar value. Values joined by “and” are separate entries in the source; they are usually repeats but may differ in a detail not shown here. Equal entries are not always repeated. Active and inactive are the calls of the source.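 How the source made its calls: active means compounds giving half or more protection of infected cells from virus-caused growth loss, again on retest; inactive means the rest.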

Tested on: CEM cells HIV-1 protection, formazan growth assay
Assay: NCI AIDS Antiviral Assay
Settings: for pIC50: measured here: growth of uninfected CEM cells
Method in brief: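 Five concentrations of each compound were applied to infected and uninfected human CEM cells. Protection from HIV-1 was judged from growth measured with a soluble formazan assay.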

| SMILES | pEC50 | pIC50 | outcome |
| --- | --- | --- | --- |
| O=C1CC(=O)NC(=NN2C(=O)CSC2c2ccc(Cl)cc2)N1 (stereo not drawn) | < 3.70 | 3.98 | – |
| N#C/C(C(=O)Nc1ccccc1)=C(/N)N1CCCC1 | < 3.70 | 3.76 | – |
| CC(=O)O[C@H]1CCC2[C@@H]3CCC4C(=O)c5oncc5C[C@]4(C)C3CC[C@@]21C (stereo partly drawn) | – | – | inactive |
| Clc1cccc(Cl)c1C1CSc2ccccc2N=C1c1ccccc1 (stereo not drawn) | < 4.24 | 5.14 | – |
| CC1CC/C(=C\c2ccc(N(C)C)cc2)C(=O)/C1=C/c1ccc(N(C)C)cc1 (stereo not drawn) | < 4.00 | 4.22 | – |
| O=S1(=O)OCCOS(=O)(=O)C1C1c2ccccc2-c2ccccc21 | < 3.70 | 4.51 | – |
| CN(/C(=N\O)c1ccccc1)c1ccccc1 | – | – | inactive |
| Cc1ccc2nc(N/N=C/c3ccc(C)s3)cc(C)c2c1 | < 3.70 | 4.84 | – |
| Nc1ncnc2c1ncn2C1OC(COP(=O)(O)O)C(O)C1O (stereo not drawn) | < 3.70 | < 3.70 | – |
| O=C1Cn2c(c3ccccc3nc2=O)N1 | < 5.00 | < 5.00 | – |
| CC(=O)NCCc1c(-c2[nH]c3ccccc3c2CCNC(C)=O)[nH]c2ccccc12 | 4.29 | 3.97 | – |
| COc1cccc2c1CCc1sc(CN3CCN(C)CC3)nc1-2 | < 3.70 | 4.52 | – |
| COc1cc(O)c(C(C)=O)c(O)c1 | < 3.70 | 4.72 | – |
| CCOC(=O)Cc1csc(Nc2ccc(OCC)cc2)n1 | < 3.67 | 3.84 | – |
| O=C(Nc1ccc(O)c(C(=O)O)c1)c1ccccc1 | < 3.70 | < 3.70 | – |
| CCOC(=O)c1nc2cc(C(F)(F)F)ccc2nc1Oc1ccc(OC)cc1 | < 3.70 | 3.76 | – |
| Cc1nc(N(CCO)CCO)nc2c1C(=O)Nc1ccccc1N2 | < 3.70 | 4.37 | – |
| O=c1oc2ccccc2c(O)c1Cc1ccccc1Cc1c(O)c2ccccc2oc1=O | < 3.70 | 3.99 | – |
| C1CCCCC/C2=C(\CCCC1)CSCCCS2 | < 3.70 | 4.23 | – |
| OCCNNCCO | < 3.70 | < 3.70 | – |
| S=P(Oc1cc(Cl)c(Cl)cc1Cl)(N1CCN(c2cccc(Cl)c2)CC1)N1CCN(c2cccc(Cl)c2)CC1 | < 4.95 | < 4.95 | – |
| COc1cc(=O)oc2c3c(ccc12)OC(C)(C)[C@H](OC(=O)C12CCC(C)(C(=O)O1)C2(C)C)[C@@H]3OC(=O)C12CCC(C)(C(=O)O1)C2(C)C (stereo partly drawn) | 6.59 | 4.29 | – |
| CC1=NS(=O)(=O)NC(C)=C1CC1=C(C)NS(=O)(=O)N=C1C | < 3.57 | < 3.57 | – |

| SMILES | pEC50 | pIC50 | outcome |
| --- | --- | --- | --- |
| O=C(NC1C=Nc2ccccc2NC1=O)c1ccc(Cl)cc1 (stereo not drawn) | < 3.70 | < 3.70 | – |
| Cc1cc2c(c(C(C)(C)C)c1)O[P+](=O)Oc1c(cc(C)cc1C(C)(C)C)C2 | < 4.73 | < 4.73 | – |
| Cc1ccc(S(=O)(=O)N/C(=C\C=C\c2ccccc2)C(=O)C(C)(C)C)cc1 | 4.41 | 4.24 | – |
| CCCCCC(/C=C/c1ncccc1OCCCCCC(=O)O)=N\NC1=NCCN1 | < 4.35 | < 4.35 | – |
| Cc1cc(O)c(C(C)(C)C)cc1Sc1cc(C(C)(C)C)c(O)cc1C | < 3.70 | 5.19 | – |
| C[N+](C)(C)CCCC#CC[N+]1(C)CCOCC1 | – | – | inactive |
| CC1CC2C(=O)N(c3ccccc3)C(=O)C2c2[nH]c3ccccc3c21 (stereo not drawn) | – | – | inactive |
| CC(C)(C)C(=O)O/C=C\OC1CCCC1(c1ccccc1)c1ccccc1 (stereo not drawn) | < 3.70 | 5.02 | – |
| CN(C)c1ccc(/C=C2\Cc3ccccc3C2=O)cc1 | < 4.84 | < 4.84 | – |
| CC1CN=C(NS(=O)(=O)c2cc(C(=O)Nc3ccc(Cl)cc3)c(Cl)cc2S)NN1 (stereo not drawn) | < 3.70 | 4.83 | – |
| O=C1Nc2ccccc2/C1=N/N1CCCCCC1 | < 3.70 | 4.01 | – |
| O=[N+]([O-])c1c(C=Nc2ccccc2)oc(-c2ccc3c(c2)OCO3)c1-c1ccc2c(c1)OCO2 | < 4.31 | < 4.31 | – |
| C1CN(P(N2CCOCC2)N2CCOCC2)CCO1 | < 3.06 | < 3.06 | – |
| O=C(O)c1ccc2c(c1)CC1(C2)Cc2cc3c(cc2C1=O)CCC3 (stereo not drawn) | < 3.70 | 4.07 | – |
| COc1ccc2nc(-c3cccs3)cc(C(O)CN3CCSCC3)c2c1 (stereo not drawn) | – | – | inactive |
| N#CCc1n[nH]c(Cc2ccccc2)n1 | < 3.70 | < 3.70 | – |
| COc1ccc(C2CC(=O)CC(c3ccc(OC)cc3)C23C(=O)NC(=O)NC3=O)cc1 (stereo not drawn) | < 4.00 | 4.39 | – |
| COc1cc(C2C(C(=O)Nc3ccccc3C)=C(C)NC(C)=C2C(=O)Nc2ccccc2C)ccc1O | < 3.44 | < 3.70 | – |
| C=CCC12CC(O)C(O)CC1(OC)OC(c1cc(OC)c(OC)c(OC)c1)C2C (stereo not drawn) | < 3.70 | 3.89 | – |
| CCCCCCCCCCCCCCCCC(C(=O)OC)S(=O)(=O)O (stereo not drawn) | < 3.70 | 3.91 | – |
| CN(C)Cc1cc(/C=C/C(=O)c2ccc(Cl)c(Cl)c2)cc(CN(C)C)c1O | < 3.82 | 5.20 | – |
| CC(=O)c1cccc(NC(=O)C(=O)NNc2n[nH]c(=S)n2N)c1 | < 3.55 | 5.17 | – |
| CCCCS(=O)(=O)O | < 3.70 | < 3.70 | – |

| SMILES | pEC50 | pIC50 | outcome |
| --- | --- | --- | --- |
| Cc1nc(-n2[nH]c(C)c(CCO)c2=O)[nH]c(=O)c1CCO | – | – | inactive |
| Cc1ccc(S(=O)(=O)Nc2cccc(C)c2C)cc1 | – | – | inactive |
| CC(=O)Nc1ccc(-c2nnc(SCC(=O)Nc3ccccc3)o2)cc1 | < 4.43 | 4.68 | – |
| CCC[n+]1noc(N)n1 | < 2.82 | < 2.82 | – |
| CN(C)c1ccc(/C=c2\sc3nc4ccccc4n3c2=O)cc1 | < 6.07 | < 6.07 | – |
| COc1cc(C(C#N)NNC(=O)Cc2ccccc2)cc(OC)c1OC (stereo not drawn) | < 3.72 | 4.03 | – |
| CON(C)C(=O)C(Cc1ccccc1)NC(=O)OC(C)(C)C (stereo not drawn) | < 3.09 | 3.81 | – |
| CC(=O)Nc1cc2cc(NS(=O)(=O)c3cc(C(F)(F)F)cc(C(F)(F)F)c3)ccc2oc1=O | < 4.56 | < 4.56 | – |
| CC(C)C1=CC23CCC4C(C)(C(=O)O)CCCC4(C)C2CC1C1C(=O)N(c2ccccc2N2C(=O)C4C5CC6C7(C)CCCC(C)(C(=O)O)C7CCC6(C=C5C(C)C)C4C2=O)C(=O)C13 (stereo not drawn) | < 3.85 | 5.09 | – |
| CC(C)(C)c1ccc(-c2nc3ccc(Cl)cc3c(=O)o2)cc1 | < 3.70 | 5.03 | – |
| COC(=O)[C@@H]1Cc2c([nH]c3ccccc23)[C@H](c2ccccc2)N1 | – | – | inactive |
| C=CCONC(=O)c1ccc(Cl)cc1 | < 3.21 | 3.28 | – |
| Nc1ncnc2c1ncn2CC(O)CO (stereo not drawn) | – | – | inactive |
| CC(C)[C@@H]1ON1C(C)c1ccccc1 (stereo partly drawn) | < 3.70 | < 3.70 | – |
| O=C(O)c1ccc([C@@H]2C(=O)N(O)[C@@H]3C=CC[C@@H]32)cc1 | < 3.46 | < 3.46 | – |
| Cn1c2ccccc2c(=O)c2[nH]c3ccccc3c21 | < 3.70 | 4.44 | – |
| c1ccc2c(c1)C1CCC2c2ccccc21 | < 3.70 | < 3.70 | – |
| N#Cc1c(N2CCCC2)[nH]c(=O)[nH]c1=S | < 3.70 | < 3.70 | – |
| O=C(NNc1nc(-c2ccccc2)cs1)C(F)(F)F | < 3.70 | 4.35 | – |
| Cc1ccccc1-c1c(N)nc(N)nc1C(=O)Nc1nccs1 | < 4.38 | < 4.38 | – |
| CCCCCCCCCCCCCCCC(=O)OCC1OC(n2cc(F)c(=O)[nH]c2=O)C(NC(=O)N(CCCl)N=O)C(O)C1O (stereo not drawn) | < 4.69 | 5.46 | – |
| CN(CC(=O)O)S(=O)(=O)c1ccc(Cl)cc1 | – | – | inactive |
| COC(=O)C(=O)C(CC(=O)Nc1ccc(C)cc1)C(=O)OC (stereo not drawn) | < 3.51 | < 3.51 | – |

| SMILES | pEC50 | pIC50 | outcome |
| --- | --- | --- | --- |
| CCCCCCCCCCCCCCCC(=O)Nc1ccn(C2CCC(COP(=O)(O)OC3CC(n4cc(C)c(=O)[nH]c4=O)OC3CO)O2)c(=O)n1 (stereo not drawn) | 7.03 | 4.34 | – |
| c1ccc(C[P+](c2ccccc2)(c2ccccc2)c2ccc3ccccc3c2-c2c([P+](Cc3ccccc3)(c3ccccc3)c3ccccc3)ccc3ccccc23)cc1 | < 3.59 | 6.41 and 5.60 | – |
| NCCCN(CCCCN(CCCN)C(=O)OCc1ccccc1)C(=O)OCc1ccccc1 | – | – | inactive |
| C=CC(O)C#Cc1cnc(OC)nc1OC (stereo not drawn) | – | – | inactive |
| [O-]c1c2c(nn1-c1ccccc1)c1ccccc1c[n+]2Cc1ccccc1 | – | – | inactive |
| C=CCc1cccc(/C(O)=C/C(=O)/C=C/c2ccccc2Cl)c1O | < 3.70 | 4.45 | – |
| O=C(NC1=C(Cl)C(=O)c2ccccc2C1=O)C(=O)c1c(O)c2ccccc2oc1=O | < 3.93 | < 3.93 | – |
| COC1CC(Br)(C#N)C1 (stereo not drawn) | – | – | inactive |
| COc1ccc(NC(=O)C(=O)/C=C(\O)c2ccccc2)cc1 | < 3.70 | 5.03 | – |
| CCN1N=CSC12C(=O)N(c1ccccc1)C(=O)N2c1ccccc1 (stereo not drawn) | – | – | inactive |
| Cc1ccc(N=Nc2c(C)nn(-c3ccccc3)c2-c2ccccc2)c(Br)c1 | – | – | inactive |
| CCN1C(=O)C(N2CCCCC2)S/C1=C\C(=O)O (stereo not drawn) | < 3.03 | 3.34 | – |
| CCOC(=O)c1cn2c3c(cccc3c1=O)CC2 | < 3.88 | < 3.88 | – |
| c1ccc(CNC2C(c3ccccc3)=NN(c3ccccc3)C2c2ccccc2)cc1 (stereo not drawn) | < 3.70 | < 3.70 | – |
| NC1CC2C3CCC2C1C3=O (stereo not drawn) | < 3.70 | < 3.70 | – |
| COc1cc2c(c(O)c1O)C(=O)C1CCC(=O)N1C2c1cccc2ccccc12 (stereo not drawn) | < 4.30 | 4.45 | – |
| CCOP(=O)(OCC)C(F)(F)Cc1cnc(C)c2c1COC(C)(C)O2 | < 3.70 | < 3.70 | – |
| CC(=N\N)/C(C)=N/N=C(C)/C(C)=N/N=C(C)/C(C)=N/N=C(C)/C(C)=N/N | < 3.70 | 4.80 | – |
| Cc1ccc(S(=O)(=O)SS(=O)(=O)c2ccc(C)cc2)cc1 | 4.86 | 4.28 | – |
| CC1=N/C(=C\c2ccc(-c3ccccc3)cc2)C(=O)O1 | < 4.70 | < 4.70 | – |
| O=C1C=C2C=CC3CC2(O1)C1CCCCN31 (stereo not drawn) | < 2.94 | 5.05 and 5.27 | – |
| COc1cc2c(c(O)c1OC)CC1CCC(=O)N1C2c1cccc2ccccc12 (stereo not drawn) | < 3.70 | 4.76 | – |
| CC(=O)NS(=O)(=O)c1ccc(NC(=O)c2ccccc2SC(=O)CCCC[n+]2ccccc2)cc1 | 5.75 | < 3.70 | – |
